Like-named read-outs stand apart in the source and are kept apart here.
Test system: Stage IIIb/IV NSCLC
Method: In both portions of the study, subjects received 150 mg of erlotinib orally once daily. […] Tumors were to be assessed every 6 weeks (±3 days) up to the first 24 weeks of the study, then every 12 weeks (+7 days) independent of treatment cycle.
All efficacy analyses were performed on the full analysis set, which includes all subjects in the randomized analysis set who received at least one dose of randomized study medication. The primary efficacy endpoint was PFS. PFS is defined as the time from the date of randomization to the earlier of the dates of the first objective documentation of radiographic disease progression or death due to any cause. A subject who was alive with no Objective documentation of (radiographic) disease progression by the data cut-off date was to be censored at the date of the last evaluable tumor assessment. The key secondary efficacy endpoint, overall survival, was defined as the time from the date of randomization to death due to any cause and was analyzed in the same manner as the primary efficacy endpoint PFS.
Kaplan-Meier curves were generated for PFS and used to calculate medians and 95% CIs for each treatment group. […] Cox's proportional hazards model.
The stratification factors included histology (Adenocarcinoma vs Non-Adenocarcinoma) and best response to prior therapy (CR/PR/SD vs PD).
Unless otherwise indicated, log-rank p-values and HRs for PFS and OS were based on the primary analysis adjusted for the stratification factors at randomization as described above.

[1] = Enrolled/Randomized set, placebo + erlotinib
[2] = Full Analysis Set, Kaplan-Meier, placebo + erlotinib
[3] = Full Analysis Set, placebo + erlotinib
[4] = HRG high (dCt<3.9), placebo + erlotinib
[5] = HRG high and EGFR wild type, placebo + erlotinib

erlotinib [Placebo + erlotinib, reference compound]
On-Study Death [1]: 13 (18.3%) subjects (%)
Primary Cause of On-Study Death: Adverse Event [1]: 5 (7.0%) subjects (%)
Primary Cause of On-Study Death: Disease Progression [1]: 8 (11.3%) subjects (%)
Primary Reason for Discontinuing Study Treatment: Death [1]: 4 (5.6%) subjects (%)
Primary Reason for Discontinuing Study Treatment: Progressive Disease (Radiographic Progression) [1]: 50 (70.4%) subjects (%)
Overall Survival, time to event, Median [2]: 7.2 months
Progression-Free Survival, time to event, Median [2]: 1.6 months
Subjects (%) with events, OS [3]: 48 (67.6%) subjects (%)
Subjects (%) with events, PFS [3]: 59 (83.1%) subjects (%)
number of subjects with the response being CP/PR [3]: 4 (5.6%) subjects (%)
OS Rate at 1 Year (%) [4]: 32.4%
OS Rate at 6 Months (%) [4]: 49.4%
OS Rate at 9 Months (%) [4]: 49.4%
PFS Rate at 8 Weeks (%) [4]: 31.3%
PFS Rate at 14 Weeks (%) [4]: 18.8%
PFS Rate at 26 Weeks (%) [4]: 0.0%
Progression-Free Survival, time to event, Median [4]: 1.4 months
Subjects (%) with events, OS [4]: 11 (61.1%) subjects (%)
Subjects (%) with events, PFS [4]: 16 (88.9%) subjects (%)
Overall Survival, time to event, Median (HRG high (dCt<3.9), preliminary, placebo + erlotinib): 5.0 months
Progression-Free Survival, time to event, Median [5]: 1.4 months
Subjects (%) with events, PFS [5]: 8 ( 88.9%) subjects (%)
objective response (CR or PR) (HRG high, placebo + erlotinib): 1 (5.6%) subjects (%)
disease control rate (HRG high, placebo plus erlotinib): 22.2%
Overall Survival, time to event, Median (HRG low, placebo + erlotinib): 8.0 months
Progression-Free Survival, time to event, Median (HRG low, placebo + erlotinib): 1.4 months
Subjects (%) with events, OS (HRG low, placebo + erlotinib): 11 (68.8%) subjects (%)
Subjects (%) with events, PFS (HRG low, placebo + erlotinib): 13 ( 81.3%) subjects (%)

Reference: patent US12497666B2, “Nucleic acid biomarker and use thereof” (Daiichi Sankyo Co., Ltd., priority 2013, dated 2025)
